Assay results from ChEMBL document CHEMBL1629559, “Real-time PCR detection of gyrA and parC mutations in Streptococcus pneumoniae” (2008).
In brackets after ≈: the same amount, converted by molar mass.

Key:
Streptococcus pneumoniae [1] = assay: Antibacterial activity against Streptococcus pneumoniae CIP104485 by agar disk diffusion method; type: functional, CIP1044
Streptococcus pneumoniae [2] = assay: Antibacterial activity against Streptococcus pneumoniae R6 by agar disk diffusion method; type: functional
Streptococcus pneumoniae [3] = assay: Antibacterial activity against Streptococcus pneumoniae CP1000 by agar disk diffusion method; type: functional
Streptococcus pneumoniae [4] = assay: Antibacterial activity against Streptococcus pneumoniae R6 Tr6 harboring gyrA Ser81Phe mutant gene by agar disk diffusion method; type: functional
Streptococcus pneumoniae [5] = assay: Antibacterial activity against Streptococcus pneumoniae U2A1686 harboring gyrA Glu85Lys mutant gene by agar disk diffusion method; type: functional
Streptococcus pneumoniae [6] = assay: Antibacterial activity against Streptococcus pneumoniae U2A1050 harboring gyrA Ser81Phe mutant gene by agar disk diffusion method; type: functional
Streptococcus pneumoniae [7] = assay: Antibacterial activity against Streptococcus pneumoniae U2A1051 harboring gyrA Ser81Tyr mutant gene by agar disk diffusion method; type: functional
Streptococcus pneumoniae [8] = assay: Antibacterial activity against Streptococcus pneumoniae U2A1266 harboring gyrA Ser81Cys mutant gene by agar disk diffusion method; type: functional
Streptococcus pneumoniae [9] = assay: Antibacterial activity against Streptococcus pneumoniae R6 Tr1 harboring parC Ser79Tyr mutant gene by agar disk diffusion method; type: functional
Streptococcus pneumoniae [10] = assay: Antibacterial activity against Streptococcus pneumoniae U2A1053 harboring parC Ser79Phe mutant gene by agar disk diffusion method; type: functional
Streptococcus pneumoniae [11] = assay: Antibacterial activity against Streptococcus pneumoniae U2A1413 harboring parC Ser79Tyr mutant gene by agar disk diffusion method; type: functional
Streptococcus pneumoniae [12] = assay: Antibacterial activity against Streptococcus pneumoniae U2A1693 harboring parC Asp83Asn mutant gene by agar disk diffusion method; type: functional
Streptococcus pneumoniae [13] = assay: Antibacterial activity against Streptococcus pneumoniae U2A1411 harboring parC Asp83Gly mutant gene by agar disk diffusion method; type: functional
Streptococcus pneumoniae [14] = assay: Antibacterial activity against Streptococcus pneumoniae U2A1681 harboring parC Ser79Tyr Asp83Ala mutant gene by agar disk diffusion method; type: functional
Streptococcus pneumoniae [15] = assay: Antibacterial activity against Streptococcus pneumoniae R6 Tr10 harboring gyrA Ser81Tyr parC Ser79Tyr mutant gene by agar disk diffusion method; type: functional
Streptococcus pneumoniae [16] = assay: Antibacterial activity against Streptococcus pneumoniae U2A1060 harboring gyrA Ser81Phe parC Asp83His mutant gene by agar disk diffusion method; type: functional
Streptococcus pneumoniae [17] = assay: Antibacterial activity against Streptococcus pneumoniae U2A1414 harboring gyrA Glu85Lys parC Ser79Phe mutant gene by agar disk diffusion method; type: functional
Streptococcus pneumoniae [18] = assay: Antibacterial activity against Streptococcus pneumoniae CIP104485 by agar dilution method; type: functional; conditions: CIP1044
Streptococcus pneumoniae [19] = assay: Antibacterial activity against Streptococcus pneumoniae R6 by agar dilution method; type: functional
Streptococcus pneumoniae [20] = assay: Antibacterial activity against Streptococcus pneumoniae CP1000 by agar dilution method; type: functional
Streptococcus pneumoniae [21] = assay: Antibacterial activity against Streptococcus pneumoniae R6 Tr6 harboring gyrA Ser81Phe mutant gene by agar dilution method; type: functional
Streptococcus pneumoniae [22] = assay: Antibacterial activity against Streptococcus pneumoniae U2A1686 harboring gyrA Glu85Lys mutant gene by agar dilution method; type: functional
Streptococcus pneumoniae [23] = assay: Antibacterial activity against Streptococcus pneumoniae U2A1050 harboring gyrA Ser81Phe mutant gene by agar dilution method; type: functional
Streptococcus pneumoniae [24] = assay: Antibacterial activity against Streptococcus pneumoniae U2A1051 harboring gyrA Ser81Tyr mutant gene by agar dilution method; type: functional
Streptococcus pneumoniae [25] = assay: Antibacterial activity against Streptococcus pneumoniae U2A1266 harboring gyrA Ser81Cys mutant gene by agar dilution method; type: functional
Streptococcus pneumoniae [26] = assay: Antibacterial activity against Streptococcus pneumoniae R6 Tr1 harboring parC Ser79Tyr mutant gene by agar dilution method; type: functional
Streptococcus pneumoniae [27] = assay: Antibacterial activity against Streptococcus pneumoniae U2A1053 harboring parC Ser79Phe mutant gene by agar dilution method; type: functional
Streptococcus pneumoniae [28] = assay: Antibacterial activity against Streptococcus pneumoniae U2A1413 harboring parC Ser79Tyr mutant gene by agar dilution method; type: functional
Streptococcus pneumoniae [29] = assay: Antibacterial activity against Streptococcus pneumoniae U2A1693 harboring parC Asp83Asn mutant gene by agar dilution method; type: functional
Streptococcus pneumoniae [30] = assay: Antibacterial activity against Streptococcus pneumoniae U2A1411 harboring parC Asp83Gly mutant gene by agar dilution method; type: functional
Streptococcus pneumoniae [31] = assay: Antibacterial activity against Streptococcus pneumoniae U2A1681 harboring parC Ser79Tyr Asp83Ala mutant gene by agar dilution method; type: functional
Streptococcus pneumoniae [32] = assay: Antibacterial activity against Streptococcus pneumoniae U2A1056 harboring gyrA Ser81Tyr parC Asp83His mutant gene by agar dilution method; type: functional
Streptococcus pneumoniae [33] = assay: Antibacterial activity against Streptococcus pneumoniae U2A1414 harboring gyrA Glu85Lys parC Ser79Phe mutant gene by agar dilution method; type: functional
Streptococcus pneumoniae [34] = assay: Antibacterial activity against Streptococcus pneumoniae H548 clinical isolate harboring gyrA Ser81Phe mutant gene by agar disk diffusion method; type: functional
Streptococcus pneumoniae [35] = assay: Antibacterial activity against Streptococcus pneumoniae U2A1056 harboring gyrA Ser81Tyr parC Asp83His mutant gene by agar disk diffusion method; type: functional
Streptococcus pneumoniae [36] = assay: Antibacterial activity against Streptococcus pneumoniae R6 Tr10 harboring gyrA Ser81Tyr parC Ser79Tyr mutant gene by agar dilution method; type: functional
Streptococcus pneumoniae [37] = assay: Antibacterial activity against Streptococcus pneumoniae U2A1060 harboring gyrA Ser81Phe parC Asp83His mutant gene by agar dilution method; type: functional

SMILES	diameter of the inhibition zone (DIZ) (Streptococcus pneumoniae [1])	diameter of the inhibition zone (DIZ) (Streptococcus pneumoniae [2])	diameter of the inhibition zone (DIZ) (Streptococcus pneumoniae [3])	diameter of the inhibition zone (DIZ) (Streptococcus pneumoniae [4])	diameter of the inhibition zone (DIZ) (Streptococcus pneumoniae [5])	diameter of the inhibition zone (DIZ) (Streptococcus pneumoniae [6])	diameter of the inhibition zone (DIZ) (Streptococcus pneumoniae [7])	diameter of the inhibition zone (DIZ) (Streptococcus pneumoniae [8])	diameter of the inhibition zone (DIZ) (Streptococcus pneumoniae [9])	diameter of the inhibition zone (DIZ) (Streptococcus pneumoniae [10])	diameter of the inhibition zone (DIZ) (Streptococcus pneumoniae [11])	diameter of the inhibition zone (DIZ) (Streptococcus pneumoniae [12])	diameter of the inhibition zone (DIZ) (Streptococcus pneumoniae [13])	diameter of the inhibition zone (DIZ) (Streptococcus pneumoniae [14])	diameter of the inhibition zone (DIZ) (Streptococcus pneumoniae [15])	diameter of the inhibition zone (DIZ) (Streptococcus pneumoniae [16])	diameter of the inhibition zone (DIZ) (Streptococcus pneumoniae [17])	MIC (Streptococcus pneumoniae [18])	MIC (Streptococcus pneumoniae [19])	MIC (Streptococcus pneumoniae [33])	also measured
COc1c(N2C[C@@H]3CCCN[C@@H]3C2)c(F)cc2c(=O)c(C(=O)O)cn(C3CC3)c12 [MOXIFLOXACIN]	26 mm	26 mm	28 mm	24 mm	27 mm	25 mm	25 mm	26 mm	28 mm	26 mm	31 mm	27 mm	25 mm	12 mm	18 mm	18 mm	17 mm	0.125 µg/mL (≈ 0.311 µM)	0.125 µg/mL (≈ 0.311 µM)	8 µg/mL (≈ 19.9 µM)	MIC (Streptococcus pneumoniae [20]): 0.25 µg/mL (≈ 0.623 µM); MIC (Streptococcus pneumoniae [21]): 0.5 µg/mL (≈ 1.25 µM); MIC (Streptococcus pneumoniae [22]): 0.5 µg/mL (≈ 1.25 µM); MIC (Streptococcus pneumoniae [23]): 1 µg/mL (≈ 2.49 µM); MIC (Streptococcus pneumoniae [24]): 1 µg/mL (≈ 2.49 µM); MIC (Streptococcus pneumoniae [25]): 0.5 µg/mL (≈ 1.25 µM); MIC (Streptococcus pneumoniae [26]): 0.5 µg/mL (≈ 1.25 µM); MIC (Streptococcus pneumoniae [27]): 0.25 µg/mL (≈ 0.623 µM); MIC (Streptococcus pneumoniae [28]): 0.25 µg/mL (≈ 0.623 µM); MIC (Streptococcus pneumoniae [29]): 0.5 µg/mL (≈ 1.25 µM); MIC (Streptococcus pneumoniae [30]): 0.5 µg/mL (≈ 1.25 µM); MIC (Streptococcus pneumoniae [31]): 8 µg/mL (≈ 19.9 µM); MIC (Streptococcus pneumoniae [32]): 2 µg/mL (≈ 4.98 µM)
C[C@@H]1CN(c2c(F)c(N)c3c(=O)c(C(=O)O)cn(C4CC4)c3c2F)C[C@H](C)N1 [SPARFLOXACIN]	24 mm	23 mm	26 mm	23 mm	24 mm	22 mm	22 mm	23 mm	25 mm	25 mm	28 mm	24 mm	19 mm	6 mm	12 mm	11 mm	6 mm	0.25 µg/mL (≈ 0.637 µM)	0.25 µg/mL (≈ 0.637 µM)	> 32 µg/mL	diameter of the inhibition zone (DIZ) (Streptococcus pneumoniae [34]): 20 mm; diameter of the inhibition zone (DIZ) (Streptococcus pneumoniae [35]): 11 mm; MIC (Streptococcus pneumoniae [20]): 0.25 µg/mL (≈ 0.637 µM); MIC (Streptococcus pneumoniae [21]): 1 µg/mL (≈ 2.55 µM); MIC (Streptococcus pneumoniae [22]): 2 µg/mL (≈ 5.1 µM); MIC (Streptococcus pneumoniae [23]): 2 µg/mL (≈ 5.1 µM); MIC (Streptococcus pneumoniae [24]): 2 µg/mL (≈ 5.1 µM); MIC (Streptococcus pneumoniae [25]): 1 µg/mL (≈ 2.55 µM); MIC (Streptococcus pneumoniae [26]): 1 µg/mL (≈ 2.55 µM); MIC (Streptococcus pneumoniae [27]): 0.25 µg/mL (≈ 0.637 µM); MIC (Streptococcus pneumoniae [28]): 0.25 µg/mL (≈ 0.637 µM); MIC (Streptococcus pneumoniae [31]): 32 µg/mL (≈ 81.5 µM); MIC (Streptococcus pneumoniae [36]): 16 µg/mL (≈ 40.8 µM); MIC (Streptococcus pneumoniae [32]): 8 µg/mL (≈ 20.4 µM); MIC (Streptococcus pneumoniae [37]): 16 µg/mL (≈ 40.8 µM)
CCn1cc(C(=O)O)c(=O)c2ccc(C)nc21 [NALIDIXIC ACID]	6 mm	6 mm	6 mm	6 mm	6 mm	6 mm	8 mm	6 mm	6 mm	13 mm	6 mm	6 mm	6 mm	6 mm	6 mm	14 mm	6 mm	–	–	–	diameter of the inhibition zone (DIZ) (Streptococcus pneumoniae [34]): 6 mm; diameter of the inhibition zone (DIZ) (Streptococcus pneumoniae [35]): 6 mm
CCn1cc(C(=O)O)c(=O)c2cc(F)c(N3CCN(C)CC3)cc21 [PEFLOXACIN]	18 mm	17 mm	21 mm	19 mm	23 mm	18 mm	20 mm	17 mm	–	13 mm	13 mm	–	–	–	–	–	–	8 µg/mL (≈ 24 µM)	8 µg/mL (≈ 24 µM)	> 128 µg/mL	MIC (Streptococcus pneumoniae [20]): 4 µg/mL (≈ 12 µM); MIC (Streptococcus pneumoniae [21]): 8 µg/mL (≈ 24 µM); MIC (Streptococcus pneumoniae [22]): 8 µg/mL (≈ 24 µM); MIC (Streptococcus pneumoniae [23]): 16 µg/mL (≈ 48 µM); MIC (Streptococcus pneumoniae [24]): 16 µg/mL (≈ 48 µM); MIC (Streptococcus pneumoniae [25]): 16 µg/mL (≈ 48 µM); MIC (Streptococcus pneumoniae [26]): 64 µg/mL (≈ 192 µM); MIC (Streptococcus pneumoniae [27]): 128 µg/mL (≈ 384 µM); MIC (Streptococcus pneumoniae [28]): 32 µg/mL (≈ 96 µM); MIC (Streptococcus pneumoniae [29]): 64 µg/mL (≈ 192 µM); MIC (Streptococcus pneumoniae [30]): 64 µg/mL (≈ 192 µM); MIC (Streptococcus pneumoniae [31]): > 128 µg/mL; MIC (Streptococcus pneumoniae [36]): > 128 µg/mL; MIC (Streptococcus pneumoniae [32]): 64 µg/mL (≈ 192 µM); MIC (Streptococcus pneumoniae [37]): 128 µg/mL (≈ 384 µM)
C[C@H]1COc2c(N3CCN(C)CC3)c(F)cc3c(=O)c(C(=O)O)cn1c23.C[C@H]1COc2c(N3CCN(C)CC3)c(F)cc3c(=O)c(C(=O)O)cn1c23.O [LEVOFLOXACIN]	22 mm	21 mm	24 mm	23 mm	26 mm	19 mm	22 mm	21 mm	21 mm	22 mm	22 mm	19 mm	15 mm	6 mm	6 mm	6 mm	6 mm	–	–	> 32 µg/mL	diameter of the inhibition zone (DIZ) (Streptococcus pneumoniae [34]): 6 mm; diameter of the inhibition zone (DIZ) (Streptococcus pneumoniae [35]): 12 mm
O=C(O)c1cn(C2CC2)c2cc(N3CCNCC3)c(F)cc2c1=O [CIPROFLOXACIN]	25 mm	21 mm	23 mm	21 mm	25 mm	23 mm	22 mm	23 mm	19 mm	19 mm	24 mm	–	10 mm	6 mm	6 mm	6 mm	6 mm	1 µg/mL (≈ 3.02 µM)	1 µg/mL (≈ 3.02 µM)	> 32 µg/mL	diameter of the inhibition zone (DIZ) (Streptococcus pneumoniae [35]): 6 mm; MIC (Streptococcus pneumoniae [20]): 1 µg/mL (≈ 3.02 µM); MIC (Streptococcus pneumoniae [21]): 1 µg/mL (≈ 3.02 µM); MIC (Streptococcus pneumoniae [22]): 1 µg/mL (≈ 3.02 µM); MIC (Streptococcus pneumoniae [23]): 2 µg/mL (≈ 6.04 µM); MIC (Streptococcus pneumoniae [24]): 2 µg/mL (≈ 6.04 µM); MIC (Streptococcus pneumoniae [25]): 2 µg/mL (≈ 6.04 µM); MIC (Streptococcus pneumoniae [26]): 2 µg/mL (≈ 6.04 µM); MIC (Streptococcus pneumoniae [27]): 4 µg/mL (≈ 12.1 µM); MIC (Streptococcus pneumoniae [28]): 2 µg/mL (≈ 6.04 µM); MIC (Streptococcus pneumoniae [30]): > 32 µg/mL; MIC (Streptococcus pneumoniae [31]): > 32 µg/mL; MIC (Streptococcus pneumoniae [36]): > 32 µg/mL; MIC (Streptococcus pneumoniae [32]): 32 µg/mL (≈ 96.6 µM); MIC (Streptococcus pneumoniae [37]): > 32 µg/mL
